Data reported in PubChem BioAssay AID463204 (Broad Institute, 2010).
The source made the active and inactive calls.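 The calls were made as follows: active = AC50 no more than ten times the top concentration tested, that is within one log above it; inconclusive = flat curve fit with activity between 30% and 70%, or invalid poor fit; inactive = AC50 beyond ten times the top tested dose.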

What follows are compounds tested on S. cerevisiae Mot1-301 ts growth rescue, BacTiter-Glo ATP luminescence (assay: growth rescue of Mot1-301 ts yeast, confirmation, SUMOylation pathway inhibitor project, whole organism, S. cerevisiae, Mot1-301 ts mutant, luminescence, dose retest (AID 463204);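 also: growth at restrictive 38.5 degrees C of Mot1-301 OY566 strain; actives raise luminescence by restoring growth of the ts mutant at high temperature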).

Compound | AC50
Cc1c(NC(=O)C(C)Sc2nnc(-c3ccccc3)o2)c(=O)n(-c2ccccc2)n1C (stereo not drawn) | > 42 µM (inactive)
CCCN(CCC)C(=O)CSc1ncccc1C(=O)O | > 42 µM (inactive)
Cc1ccc(Cn2c(NCCc3ccccc3)nc3c2c(=O)n(C)c(=O)n3C)cc1 | > 42 µM (inactive)
Nc1ccnc(=O)[nH]1 | > 42 µM (inactive)
CCCOC(=O)c1ccc(O)c(OC)c1 | > 42 µM (inactive)
N=c1ncn(CC(O)CO)c2nc(N3CCOCC3)[nH]c12 (stereo not drawn) | > 42 µM (inactive)
Cc1ccc(SCCC(=O)Nc2ccc(OCc3ccccc3)cc2)cc1 | > 42 µM (inactive)
Cc1ccc(NC(=S)NNC(=O)c2ccc(N3CCOCC3)c([N+](=O)[O-])c2)cc1C | > 42 µM (inactive)
COc1cccc(S(=O)(=O)Nc2cccc(C(=O)N3CCOCC3)c2)c1 | > 42 µM (inactive)
O=C(Nc1nnc(COc2ccc(F)cc2)s1)c1cccs1 | > 42 µM (inactive)
Cc1cc(C)c(NC(=O)Cn2c([N+](=O)[O-])cnc2C)c(C)c1 | > 42 µM (inactive)
NC1=NC2(CCCC2)N=C(Nc2ccccc2)N1 | > 42 µM (inactive)
NS(=O)(=O)c1cccc(NC(=O)CSc2nnnn2-c2ccccc2)c1 | > 42 µM (inactive)
Oc1ccc(C2=CSC3=NCCN23)cc1O | > 42 µM (inactive)
COc1cc(NC(=O)c2cc(Cl)ccc2Cl)ccc1-c1cc2ccccc2oc1=O | > 42 µM (inactive)
O=C(CCCCCn1c(=O)[nH]c2ccsc2c1=O)NCc1ccc(F)cc1 | > 42 µM (inactive)
Cc1cc(C(=O)COc2cccc3cccnc23)c(C)n1C | > 42 µM (inactive)
CN(C(=O)C1CCCO1)c1nnc(-c2cnccn2)s1 (stereo not drawn) | > 42 µM (inactive)
Cn1c(C(=O)NCCc2ccsc2)cc2c(=O)n(C)c3ccccc3c21 | > 42 µM (inactive)
CCCC(=O)Nc1ccc(Sc2ccc([N+](=O)[O-])cc2)cc1 | 30.9 µM
O=C(O)CCC(=O)N1N=C(c2c(-c3ccccc3)c3cc(Cl)ccc3[nH]c2=O)CC1c1ccco1 (stereo not drawn) | > 42 µM (inactive)
COc1cc2c(=O)n(-c3ccc(C)cc3)c(=O)n(CC(=O)c3ccc4c(c3)OCO4)c2cc1OC | > 42 µM (inactive)
CC(C)c1ccc(NC(=O)COc2nnc(-c3cccs3)c(-c3cccs3)n2)cc1 | > 42 µM (inactive)
CC(C(=O)Nc1ccccc1-c1ccccc1)N1CCN(Cc2ccccc2)CC1 (stereo not drawn) | > 42 µM (inactive)
N#Cc1c(Cn2cncn2)nc(=O)n(-c2ccc(Cl)cc2)c1N | > 42 µM (inactive)

Compound | AC50
COc1ccccc1NC(=O)CN(c1ccc(C)cc1)S(=O)(=O)c1c(C)n[nH]c1C | > 42 µM (inactive)
CC(NC(=O)OCc1ccccc1)C(=O)N1CC(O)CC1C(=O)O (stereo not drawn) | > 21 µM (inactive)
CCCCOc1ccc(C(=O)Nc2ccc(N3CCN(C)CC3)cc2)cc1 | > 42 µM (inactive)
COc1ccc(C(=O)N/C(=C\c2cc(OC)c(OC)cc2[N+](=O)[O-])C(=O)NCCO)cc1 | > 42 µM (inactive)
Cc1ccccc1Cn1cc(NC(=O)c2cc3nc(-c4ccco4)cc(C(F)(F)F)n3n2)cn1 | > 42 µM (inactive)
Cc1ccc(S(=O)(=O)Oc2ccc(/C=C3\N=C(c4cccc(C)c4)OC3=O)cc2)cc1 | > 42 µM (inactive)
COc1cc2c(cc1OC)C(c1ccccc1[N+](=O)[O-])N(C(C)=O)CC2 (stereo not drawn) | > 42 µM (inactive)
Cc1c(NC(=O)c2cc(-c3ccccc3O)on2)c(=O)n(-c2ccccc2)n1C | > 42 µM (inactive)
COc1ccc(C(=O)O)cc1S(=O)(=O)NCCN(C)C | > 42 µM (inactive)
O=C(Nc1nccs1)C1CCN(S(=O)(=O)c2ccc(Cl)c(C(F)(F)F)c2)CC1 | > 42 µM (inactive)
O=C(c1ccc(COc2ccccc2Cl)o1)N1N=C(C(F)F)CC1(O)C(F)F (stereo not drawn) | > 42 µM (inactive)
CCOC(=O)N1CCN(C(=O)c2ccc3ccccc3c2)CC1 | > 42 µM (inactive)
O=C(CCc1ccccc1)N1CCN(c2ccccc2F)CC1 | > 42 µM (inactive)
COc1cccc(C2CC(c3cccc(NS(C)(=O)=O)c3)=NN2C(=O)c2ccccc2)c1OC (stereo not drawn) | > 42 µM (inactive)
Cc1cc2ncc(C(=O)N=CN(C)C)cn2n1 | > 42 µM (inactive)
O=C(CSc1nnc(-c2ccc(Br)cc2)o1)Nc1cccc2ccccc12 | > 42 µM (inactive)
COCC(=O)n1nc(NCc2ccc(OC)cc2)nc1NCc1ccc(OC)cc1 | > 42 µM (inactive)
CC(C(=O)N1CCN(C(=O)c2ccco2)CC1)n1sc2ccccc2c1=O (stereo not drawn) | > 42 µM (inactive)
C/C(=N\N=C(/N)SC1CC(=O)N(c2cccc(Cl)c2)C1=O)c1cccs1 (stereo not drawn) | > 42 µM (inactive)
CCNc1ccc(S(=O)(=O)N(C)C)cc1NCC(=O)Nc1ccccc1Br | > 42 µM (inactive)
O=C(CSc1ncn[nH]1)Nc1cccc(S(=O)(=O)N2CCCCCC2)c1 | > 42 µM (inactive)
COc1cc(-c2nnc(SCC#CCO)o2)cc(OC)c1OC | > 42 µM (inactive)
C[n+]1c(-c2ccccc2)cc(CCCCc2cc(-c3ccccc3)[n+](C)c(-c3ccccc3)c2)cc1-c1ccccc1 | > 21 µM (inactive)
CCN(C(=S)NCCOC)c1cccc2ccccc12 | > 42 µM (inactive)
O=C(CSc1nc(-c2ccccc2)nc2ccc(F)cc12)Nc1cccc(C(=O)O)c1 | > 42 µM (inactive)

Compound | AC50
CCc1ccccc1NC(=S)NNC(=O)c1ccccc1Cl | > 42 µM (inactive)
O=C(N/N=C/c1ccccn1)NC12CC3CC(CC(C3)C1)C2 | > 42 µM (inactive)
CCCNC(=O)CN(c1ccc(F)cc1)S(=O)(=O)c1ccc2c(c1)OCCO2 | > 42 µM (inactive)
COc1cc(CN2CCC(Oc3cc(C(=O)NC4CC4)ccc3OC)CC2)cc(OC)c1 | 34.8 µM
CN(C(=O)CSc1nnc(-c2cccc(F)c2)n1N)C1CCS(=O)(=O)C1 (stereo not drawn) | > 42 µM (inactive)
Cc1ccc(S(=O)(=O)NCc2ccc(C(=O)N3CCN(c4ccccn4)CC3)cc2)cc1 | > 42 µM (inactive)
O=S(=O)(c1ccccc1)N1CCN(c2nc3ccccc3s2)CC1 | > 42 µM (inactive)
CN(C=O)CP(=O)(O)CN(C)C=O | > 42 µM (inactive)
CCC(C)NC(=O)CSc1nnc(-c2cc(-c3ccc(C)cc3)nc3ccccc23)n1N (stereo not drawn) | > 42 µM (inactive)
C=C(C)C(=O)Nc1cccnc1Oc1ccc(F)cc1F | > 42 µM (inactive)
CCCC1Cc2c(sc3ncnc(N)c23)CO1 (stereo not drawn) | > 42 µM (inactive)
O=c1[nH]c(CN2CCN(CCO)CC2)nc2ccccc12 | > 42 µM (inactive)
COc1cc(C)c(Cl)c(C)c1S(=O)(=O)NCc1ccc2c(c1)OCO2 | > 42 µM (inactive)
COc1ccc(C(=O)N2CCN(c3ccc(NC(=O)c4cccnc4)cc3)CC2)cc1 | > 42 µM (inactive)
Cc1ccc(N(CC(=O)NCCc2ccc(Cl)cc2)S(=O)(=O)c2c(C)noc2C)cc1 | > 42 µM (inactive)
COc1cccc(C(=O)NCc2ccc(-c3nc4ccccc4s3)cc2)c1 | > 42 µM (inactive)
CCNC(=S)Nc1ccc(C)c(S(=O)(=O)Nc2ccccc2OC)c1 | > 42 µM (inactive)
CCN(C(=O)Nc1ccccc1OC)c1c(N)n(Cc2ccccc2)c(=O)[nH]c1=O | > 42 µM (inactive)
Cc1cc(-c2ccccc2)n(-c2ccc(C(=O)NC(C)C)cc2)n1 | > 42 µM (inactive)
Cc1cc(C(=O)NN)n[nH]1 | > 42 µM (inactive)
COc1ccc(NC(=O)C2CCCN(C(=O)Nc3cccc(OC)c3)C2)cc1 (stereo not drawn) | > 42 µM (inactive)
Cc1nc(NC(=O)CSc2nc(N)cc(N)n2)sc1C | > 42 µM (inactive)
N#C/C(=C\c1cn(-c2ccccc2)nc1-c1cccnc1)c1nnc2n1CCCCC2 | > 42 µM (inactive)
CC1CN(C(=O)c2cc([N+](=O)[O-])cc([N+](=O)[O-])c2)CC(C)O1 (stereo not drawn) | > 42 µM (inactive)
CC1CCN(C(=O)Cn2cnc3c2c(=O)n(C)c(=O)n3C)c2ccccc2S1 (stereo not drawn) | 7.66 µM

Compound | AC50
C/C(=N\NC(=S)Nc1ccccc1)C1Cc2ccccc2C(=O)O1 (stereo not drawn) | > 42 µM (inactive)
Nc1cc(-c2ccc(Cl)cc2)nn1S(=O)(=O)c1ccc(Cl)cc1 | > 42 µM (inactive)
CS(=O)(=O)N(CCc1ccccc1)CC(=O)NCc1cccnc1 | > 42 µM (inactive)
O=c1/c(=C/c2ccco2)sc2nc(-c3ccccc3Br)nn12 | 5.74 µM
O=S(=O)(O)c1ccc(N=NNc2ccc(Br)cc2)cc1 | > 42 µM (inactive)
COc1cc(CN2CCNC(=O)C2CC(=O)NCCc2ncccc2C)cc(OC)c1 (stereo not drawn) | > 42 µM (inactive)
COc1cc(NC(=O)CCN2CCN(Cc3ccccc3)CC2)cc(OC)c1 | > 42 µM (inactive)
CCN1CCN(CC(=O)N2N=CCC2c2ccccc2)CC1 (stereo not drawn) | > 42 µM (inactive)
O=C1c2cc(N3CCCC3)c([N+](=O)[O-])cc2C(=O)N1c1ccccc1 | > 42 µM (inactive)
Cc1cc(C)c(NC(=O)CCN2CCN(Cc3ccccc3)CC2)c(C)c1 | > 42 µM (inactive)
C=CCn1c(=N)c(C(=O)NCCCOC)cc2c(=O)n3ccccc3nc21 | > 42 µM (inactive)
CC(C)c1cc(N2CCOCC2)n2ncc(-c3ccccc3)c2n1 | > 42 µM (inactive)
CC1=Nc2ccccc2/C1=C\c1nc(-c2ccccc2)oc1O | > 42 µM (inactive)
COc1ccc(NC(=O)Cn2nnc(C(=O)Nc3ccc(F)c(Cl)c3)c2N)cc1 | > 42 µM (inactive)
O=C(C1CCN(S(=O)(=O)N2CCC3(CC2)OCCO3)CC1)N1CCC(Cc2ccccc2)CC1 | > 42 µM (inactive)
Cc1[nH]c2ccccc2c1/C=N/NC(=O)c1cccc(Br)c1 | > 42 µM (inactive)
O=C(c1ccco1)N1CCN(CC(=O)N2c3ccccc3CCc3ccccc32)CC1 | > 42 µM (inactive)
CCN(CCn1cccn1)C(=O)C1CCC(=O)N(CCc2cccc(F)c2)C1 (stereo not drawn) | > 42 µM (inactive)
CN(C)C1(c2nnnn2-c2ccc(Cl)cc2)CCCCC1 | 27.9 µM
COc1ccc(C(=O)N/C(=C\c2cn(C)c3ccccc23)C(=O)OCCN(C)C)cc1 | > 42 µM (inactive)
CCC(C)[C@H](NC(=O)OC(C)(C)C)C(=O)NCC1CCC(C(=O)N[C@@H](Cc2ccccc2)C(=O)O)CC1 (stereo partly drawn) | > 42 µM (inactive)
O=C1c2ccccc2NC(c2ccccc2O)N1O (stereo not drawn) | > 42 µM (inactive)
O=C(CCSc1nnc(-c2ccncc2)o1)Nc1ccc(Cl)cc1 | > 42 µM (inactive)
